# According to patent US10159640B2, “Prebiotic oral care compositions containing amino acids” (COLGATE-PALMOLIVE COMPANY, priority 2013, dated 2018):
# Assays:
# Assay type in all cases: cell-based
# [1] = tested on: beneficial oral bacteria and pathogenic oral bacteria; assay: Metabolic activity, whole panel: prebiotic effect; details: threshold value of 2
# How it was run: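 Biolog phenotype microarrays with dipeptide-preloaded wells; each species suspended in IF-0 with Redox Dye Mix D (85% transmittance) plus succinate/ferric citrate, incubated anaerobically at 37° C. Tetrazolium reduction read at 492 nm at 24 and 48 h versus no-dipeptide controls; values are means of three biological replicates.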
# Tannerella forsythia = assay: Biofilm growth assay in BHI, crystal violet; details: control = 1
# Procedure: (§1) The increase in biofilm formation of the tested bacteria in response to selected compounds (Met-Pro, Phe-Glu) was investigated by setting up biofilm growth assays in a nutritionally rich medium (brain heart infusion broth (BHI), Oxoid), over 48 hours. Late exponential growth phase liquid cultures were prepared by transferring the respective bacterium from blood agar plates to BHI and overnight incubation at 37° C. in an anaerobic atmosphere for A. viscosus, V. parvula, F. nucleatum, P. gingivalis, P. intermedia, T. forsythia, A. naeslundii, and C. sputigena, and in a 5% CO2 environment for S. salivarius, S. sanguinis, S. mitis, A. actinomycetemcomitans, S. mutans, and S. gordonii. Overnight cultures were transferred to BHI and adjusted to a concentration of 1×10^7 CFU/ml by measuring the optical density at 600 nm (OD600) (BioRad SmartSpec 3000). For each strain, 200 μl of the bacterial suspension was added to a 96-well plate containing 20 μl of the respective di-peptides. Final concentrations of the di-peptides were set to 5, 10, 20 and 25 μmol/ml. […] Additionally, for each bacterium tested, a background control, to correct for background staining, was added. This background control contained the bacterium tested and 0.03 weight % chlorhexidine, as an antiseptic. Plates were incubated as previously described. After 48 hrs the supernatant was removed from the wells of the plates. The wells were washed twice with 1×100 μL PBS (phosphate buffered saline), fixed for 20 minutes with 96% vol. ethanol (96% vol. solution in water) and the biofilm retained at the bottom of the wells was stained with 1 weight % crystal violet (1 weight % solution in water). The bound dye was dissolved with 5% vol. acetic acid (5% vol. solution in water). Quantification of the stained biofilm was performed by measuring the absorbance at 630 nm using a Multiskan Ascent microplate reader (Thermo Scientific).
# (§2) The experiment was carried out on three different days (thus providing 3 biological replicas) and each day the experiment was carried out in quadruple (thus providing 4 technical replicas) for each combination of bacterium with dipeptide and for each control. For each day and for each combination, the average (mean) of the values obtained (as detailed above) for the four technical replicas was calculated to provide a single value for each combination on each day. The values shown in Tables 7 to 8, below, are the average (mean) of the three single values obtained for each combination of bacterium with dipeptide.
# Veillonella parvula = assay: Biofilm growth assay in BHI, crystal violet; details: control = 1
# Procedure: as §1, §2
# Actinomyces viscosus = assay: Biofilm growth assay in BHI, crystal violet; details: control = 1
# Procedure: as §1, §2
# [2] = tested on: Aggregatibacter actinomycetemcomitans; assay: Biofilm growth assay in BHI, crystal violet; details: control = 1
# Procedure: as §1, §2
# Porphyromonas gingivalis = assay: Biofilm growth assay in BHI, crystal violet; details: control = 1
# Procedure: as §1, §2
# Streptococcus sanguinis = assay: Biofilm growth assay in BHI, crystal violet; details: control = 1
# Procedure: as §1, §2
Substance,prebiotic effects (metabolic activity) ([1]; 24 hrs),prebiotic effects (metabolic activity) ([1]; 48 hrs),biofilm growth: OD 630 nm (crystal violet) at 48 hrs divided by OD of control (Tannerella forsythia; 5 μmol/ml),biofilm growth: OD 630 nm (crystal violet) at 48 hrs divided by OD of control (Tannerella forsythia; 10 μmol/ml),biofilm growth: OD 630 nm (crystal violet) at 48 hrs divided by OD of control (Tannerella forsythia; 20 μmol/ml),biofilm growth: OD 630 nm (crystal violet) at 48 hrs divided by OD of control (Tannerella forsythia; 25 μmol/ml),biofilm growth: OD 630 nm (crystal violet) at 48 hrs divided by OD of control (Veillonella parvula; 5 μmol/ml),biofilm growth: OD 630 nm (crystal violet) at 48 hrs divided by OD of control (Veillonella parvula; 10 μmol/ml),biofilm growth: OD 630 nm (crystal violet) at 48 hrs divided by OD of control (Veillonella parvula; 20 μmol/ml),biofilm growth: OD 630 nm (crystal violet) at 48 hrs divided by OD of control (Veillonella parvula; 25 μmol/ml),biofilm growth: OD 630 nm (crystal violet) at 48 hrs divided by OD of control (Actinomyces viscosus; 5 μmol/ml),biofilm growth: OD 630 nm (crystal violet) at 48 hrs divided by OD of control (Actinomyces viscosus; 10 μmol/ml),biofilm growth: OD 630 nm (crystal violet) at 48 hrs divided by OD of control (Actinomyces viscosus; 20 μmol/ml),biofilm growth: OD 630 nm (crystal violet) at 48 hrs divided by OD of control (Actinomyces viscosus; 25 μmol/ml),biofilm growth: OD 630 nm (crystal violet) at 48 hrs divided by OD of control ([2]; 5 μmol/ml),biofilm growth: OD 630 nm (crystal violet) at 48 hrs divided by OD of control ([2]; 10 μmol/ml),biofilm growth: OD 630 nm (crystal violet) at 48 hrs divided by OD of control ([2]; 20 μmol/ml),biofilm growth: OD 630 nm (crystal violet) at 48 hrs divided by OD of control ([2]; 25 μmol/ml),biofilm growth: OD 630 nm (crystal violet) at 48 hrs divided by OD of control (Porphyromonas gingivalis; 5 μmol/ml),biofilm growth: OD 630 nm (crystal violet) at 48 hrs divided by OD of control (Porphyromonas gingivalis; 10 μmol/ml),also measured
Met-Pro,exhibited prebiotic effects,exhibited prebiotic effects,0.4857,0.4691,0.2726,0.1909,0.2845,0.2886,0.1745,0.2121,0.4286,0.4021,0.1766,0.0355,0.8177,0.5095,0.2556,0.1103,0.6831,0.7344,biofilm growth: OD 630 nm (crystal violet) at 48 hrs divided by OD of control (Porphyromonas gingivalis; 20 μmol/ml): 0.8922; biofilm growth: OD 630 nm (crystal violet) at 48 hrs divided by OD of control (Porphyromonas gingivalis; 25 μmol/ml): 0.4990; biofilm growth: OD 630 nm (crystal violet) at 48 hrs divided by OD of control (Streptococcus sanguinis; 5 μmol/ml): 1.1768; biofilm growth: OD 630 nm (crystal violet) at 48 hrs divided by OD of control (Streptococcus sanguinis; 10 μmol/ml): 1.7015; biofilm growth: OD 630 nm (crystal violet) at 48 hrs divided by OD of control (Streptococcus sanguinis; 20 μmol/ml): 2.1767; biofilm growth: OD 630 nm (crystal violet) at 48 hrs divided by OD of control (Streptococcus sanguinis; 25 μmol/ml): 1.6580
Phe-Glu,exhibited prebiotic effects,exhibited prebiotic effects,0.5744,0.3083,0.0188,0.0254,0.3257,0.3136,0.1638,0.2969,1.3972,1.2242,0.0684,0.0490,0.5867,0.3454,0.0481,0.0212,0.7552,0.9004,biofilm growth: OD 630 nm (crystal violet) at 48 hrs divided by OD of control (Porphyromonas gingivalis; 20 μmol/ml): 0.1717; biofilm growth: OD 630 nm (crystal violet) at 48 hrs divided by OD of control (Porphyromonas gingivalis; 25 μmol/ml): 0.3008; biofilm growth: OD 630 nm (crystal violet) at 48 hrs divided by OD of control (Streptococcus sanguinis; 5 μmol/ml): 1.2254; biofilm growth: OD 630 nm (crystal violet) at 48 hrs divided by OD of control (Streptococcus sanguinis; 10 μmol/ml): 1.0551; biofilm growth: OD 630 nm (crystal violet) at 48 hrs divided by OD of control (Streptococcus sanguinis; 20 μmol/ml): 0.5417; biofilm growth: OD 630 nm (crystal violet) at 48 hrs divided by OD of control (Streptococcus sanguinis; 25 μmol/ml): 0.4820
